# From US11422106B2, “Using 4-acetoxyphenol as a substrate for modular hydrolase biosensors” (United States Government, as represented by the …, priority 2019, dated 2022)
# Several values for one entry are separate records, joined by “and”; a condition that tells them apart may be missing. Identical values can stand only once.
# Assays:
# [1] = target: T1, Acetylcholinesterase (AchE) (Electrophorus electricus, UniProt O42275); assay: Amperometric activity assay of immobilized AchE electrode with 4-acetoxyphenol (steady state current at 0.35 V); format: biochemical, Electrophorus electricus (electric eel); conditions: substrate 4-acetoxyphenol
# T1 construct: purchased Sigma-Aldrich Type VI-S (catalogue number not given)
# Experimental: Acetylcholinesterase (E.C. 3.1.1.7) Type VI-S from Electrophorus electricus (electric eel) with activity of 217 U mg^−1 protein, was purchased from Sigma-Aldrich. 4-Acetoxyphenol was purchased from Combi-Blocks (San Diego, Calif., USA). All other chemicals were purchased from Sigma-Aldrich (reagent grade) and used as received.
# A mixture of BSA and AchE (containing 0.50 μg, or 0.11 U of the AchE, 8 μg of BSA in 10 μl of 0.06 M phosphate, pH 7.0) was spread on the working electrode of carbon SPE (RRPE1002C). The proteins were deposited on the electrode surface by air drying, and then crosslinked by adding 10 μl of 0.0021% of glutaraldehyde solution in water. The electrode was air dried at room temperature for 16 h to complete the crosslinking. To hydrate the sensor, it was stored in 0.1 M Tris-HCl, pH 7.0 for >24 h at room temperature before use.
# Electrochemical evaluations were carried out in the low volume SPE cell (Pine Research Instrumentation, Durham, N.C., USA), and the conditions controlled by a DY2013 Potentiostat with DY2000 software (Digi-Ivy, Inc. Austin, Tex., USA). The working potential was set with the Ag/AgCl electrode on the SPE as the reference. […]
# All evaluations were carried out at 22±2° C. The current in amperometric determination was recorded for 150 s. […] The average of the readings between 120 s and 150 s was used as the steady-state current. […]
# [2] = target: T1, Acetylcholinesterase (AchE); assay: Speciation of As(III)/As(V) mixtures with the AchE sensor versus ICP-AES; format: biochemical, Electrophorus electricus (electric eel); conditions: 5 μM As(V) mixed with 0-20 μM As(III), 0.1 M Tris-HCl pH 8.0
# [3] = target: T1, Acetylcholinesterase (AchE); format: biochemical, Electrophorus electricus (electric eel)
# [4] = Hydrolase activity of commercial enzymes with 4-acetoxyphenol as substrate; format: biochemical
# Source text: Instead of, or in addition to, AchE, the preferred biosensors of the present subject matter can utilize a wide range of enzyme(s). Table 1 set forth below lists a representative list of enzymes suitable for use in the biosensors of the present subject matter. The preferred biosensors can utilize one or more of these enzyme(s) instead of, or in addition to, AchE. It is also contemplated that other enzyme(s) could potentially be used in the biosensors of the present subject matter.
# T1 sequence (O42275 24-633): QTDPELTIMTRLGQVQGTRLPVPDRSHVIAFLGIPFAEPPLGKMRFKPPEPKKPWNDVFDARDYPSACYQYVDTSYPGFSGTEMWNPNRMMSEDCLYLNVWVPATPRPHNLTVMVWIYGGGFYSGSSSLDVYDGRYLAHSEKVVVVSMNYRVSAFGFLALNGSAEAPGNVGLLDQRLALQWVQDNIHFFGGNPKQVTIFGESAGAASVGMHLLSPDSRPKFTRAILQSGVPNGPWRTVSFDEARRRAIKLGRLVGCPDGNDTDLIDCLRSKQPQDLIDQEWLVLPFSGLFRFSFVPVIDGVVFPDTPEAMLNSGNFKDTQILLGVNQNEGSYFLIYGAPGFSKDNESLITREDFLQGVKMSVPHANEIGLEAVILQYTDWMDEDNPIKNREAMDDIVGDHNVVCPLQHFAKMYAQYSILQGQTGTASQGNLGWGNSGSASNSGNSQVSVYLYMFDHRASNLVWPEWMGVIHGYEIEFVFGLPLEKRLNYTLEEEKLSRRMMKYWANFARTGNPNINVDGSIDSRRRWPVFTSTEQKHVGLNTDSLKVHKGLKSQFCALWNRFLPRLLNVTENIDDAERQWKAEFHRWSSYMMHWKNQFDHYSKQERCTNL
molecule,measurement,setting,value
CC(=O)Oc1ccc(O)cc1 [4-acetoxyphenol],Vmax (Michaelis-Menten fit of steady state current),[1],24.2±1.1 μA
same,current density corresponding to Vmax,[1],121+5.25 μA cm^−2
"O.O.O.O.O.O.O.O=[As]([O-])([O-])O.[Na+].[Na+] [As(V), Na2HAsO4.7H2O]",sensitivity of the AchE sensor to the species,[2],not sensitive
sodium arsenite [As(III)],estimated inhibition (from linear regression),[3],50.7±5.7%
same,inhibition,[3],about 55%
same,maximum inhibition,[3],69.3% and 65.7%
same,IMax,[3]; pH 8,70-75%
same,Ki,[3]; pH 8,61.6 µM
same,k1 (reversible pseudo-first order model),[3]; pH 8,47.3 M⁻¹ s⁻¹
same,"second (dissociation) rate constant of the reversible pseudo-first order model, symbol not given",[3]; pH 8,0.175 M⁻¹
"Palatase 20000 L: Lipase, Novozyme, Rhizomucor miehei (protein, UniProt P19515 95-363, looked up) Lipase: SIDGGIRAATSQEINELTYYTTLSANSYCRTVIPGATWDCIHCDATEDLKIIKTWSTLIYDTNAMVARGDSEKTIYIVFRGSSSIRNWIADLTFVPVSYPPVSGTKVHKGFLDSYGEVQNELVATVLDQFKQYPSYKVAVTGHSLGGATALLCALDLYQREEGLSSSNLFLYTQGQPRVGDPAFANYVVSTGIPYRRTVNERDIVPHLPPAAFGFLHAGEEYWITDNSPETVQVCTSDLETSDCSNSIVPFTSVLDHLSYFGINTGLCT",Activity with 4-Acetoxyphenol,[4],3.43 µmol/mg/min
"Lipolase 100 L: Lipase, Novozyme, Thermomyces lanuginosus (protein, UniProt O59952 23-291, looked up, commercial Novozymes enzyme preparation, Lipase, Novozyme, Thermomyces lanuginosus) Lipase: EVSQDLFNQFNLFAQYSAAAYCGKNNDAPAGTNITCTGNACPEVEKADATFLYSFEDSGVGDVTGFLALDNTNKLIVLSFRGSRSIENWIGNLNFDLKEINDICSGCRGHDGFTSSWRSVADTLRQKVEDAVREHPDYRVVFTGHSLGGALATVAGADLRGNGYDIDVFSYGAPRVGNRAFAEFLTVQTGGTLYRITHTNDIVPRLPPREFGYSHSSPEYWIKSGTLVPVTRNDIVKIEGIDATGGNNQPNIPDIPAHLWYFGLIGTCL",Activity with 4-Acetoxyphenol,[4],1.59 µmol/mg/min
"Alcalase 2.5 Type DX: Subtilisin, Novozyme, Bacillus licheniformis (protein, UniProt P00780 106-379, looked up, commercial Novozymes enzyme preparation, Subtilisin, Novozyme, Bacillus licheniformis) Subtilisin Carlsberg: AQTVPYGIPLIKADKVQAQGFKGANVKVAVLDTGIQASHPDLNVVGGASFVAGEAYNTDGNGHGTHVAGTVAALDNTTGVLGVAPSVSLYAVKVLNSSGSGSYSGIVSGIEWATTNGMDVINMSLGGASGSTAMKQAVDNAYAKGVVVVAAAGNSGSSGNTNTIGYPAKYDSVIAVGAVDSNSNRASFSSVGAELEVMAPGAGVYSTYPTNTYATLNGTSMASPHVAGAAALILSKHPNLSASQVRNRLSSTATYLGSSFYYGKGLINVEAAAQ",Activity with 4-Acetoxyphenol,[4],1.93 µmol/mg/min
